Assay type in all cases: biochemical
For assay [1], the target named is TNF-α converting enzyme (TACE) (Homo sapiens, UniProt P78536). Kind of assay: TACE inhibition (fluorescent peptidyl substrate). The settings on record: read-out: TACE IC50.
Experimental: Using 96-well black microtiter plates, each well receives a solution composed of 10 μL TACE (final concentration 1 μg/mL), 70 μL Tris buffer, pH 7.4 containing 10% glycerol (final concentration 10 mM), and 10 μL of test compound solution in DMSO (final concentration 1 μM, DMSO concentration <1%) and incubated for 10 minutes at room temperature.
The reaction is read (excitation 340 nm, emission 420 nm) for 10 min. and the increase in fluorescence over time is plotted as a linear line. The slope of the line is calculated and represents the reaction rate.
The linearity of the reaction rate is confirmed (r^2>0.85). The mean (x±sem) of the control rate is calculated and compared for statistical significance (p<0.05) with drug-treated rates using Dunnett's multiple comparison test.
Another assay addresses MMP-9 (Homo sapiens, UniProt P14780). The assay can be described thus: MMP-9 inhibition (thiopeptide or fluorescent peptide substrate). The note with it: read-out: MMP-9 IC50.
For another assay, the target named is T1, MMP-1 (Homo sapiens, UniProt P03956).
T1 sequence (P03956 100-469): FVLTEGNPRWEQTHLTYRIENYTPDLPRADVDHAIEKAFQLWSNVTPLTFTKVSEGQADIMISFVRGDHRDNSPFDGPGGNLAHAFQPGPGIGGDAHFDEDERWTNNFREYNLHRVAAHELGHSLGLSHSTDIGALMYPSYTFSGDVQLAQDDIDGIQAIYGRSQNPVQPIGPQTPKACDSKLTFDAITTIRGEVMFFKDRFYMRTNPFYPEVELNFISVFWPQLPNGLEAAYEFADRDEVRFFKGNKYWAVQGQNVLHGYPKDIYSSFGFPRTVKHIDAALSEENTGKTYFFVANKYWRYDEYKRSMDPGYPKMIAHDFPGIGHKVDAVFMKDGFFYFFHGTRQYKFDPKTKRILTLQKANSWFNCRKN
Kind of assay: MMP-1 inhibition (thiopeptide or fluorescent peptide substrate). The settings on record: read-out: MMP-1 IC50.

The target in another assay is MMP-13 (Homo sapiens, UniProt P45452). The assay can be described thus: MMP-13 inhibition (thiopeptide or fluorescent peptide substrate).
Setting [2] is: Table 10, read-out: MMP-13 IC50.
Where [3] appears, read: Table 11, read-out: MMP-13 IC50.

Molecules are shown by their SMILES. Structures can show the parent of a compound that is named as a salt. Where two headings read alike, the source gives them in different places.

Chain of MMP-9 (P14780 94-707): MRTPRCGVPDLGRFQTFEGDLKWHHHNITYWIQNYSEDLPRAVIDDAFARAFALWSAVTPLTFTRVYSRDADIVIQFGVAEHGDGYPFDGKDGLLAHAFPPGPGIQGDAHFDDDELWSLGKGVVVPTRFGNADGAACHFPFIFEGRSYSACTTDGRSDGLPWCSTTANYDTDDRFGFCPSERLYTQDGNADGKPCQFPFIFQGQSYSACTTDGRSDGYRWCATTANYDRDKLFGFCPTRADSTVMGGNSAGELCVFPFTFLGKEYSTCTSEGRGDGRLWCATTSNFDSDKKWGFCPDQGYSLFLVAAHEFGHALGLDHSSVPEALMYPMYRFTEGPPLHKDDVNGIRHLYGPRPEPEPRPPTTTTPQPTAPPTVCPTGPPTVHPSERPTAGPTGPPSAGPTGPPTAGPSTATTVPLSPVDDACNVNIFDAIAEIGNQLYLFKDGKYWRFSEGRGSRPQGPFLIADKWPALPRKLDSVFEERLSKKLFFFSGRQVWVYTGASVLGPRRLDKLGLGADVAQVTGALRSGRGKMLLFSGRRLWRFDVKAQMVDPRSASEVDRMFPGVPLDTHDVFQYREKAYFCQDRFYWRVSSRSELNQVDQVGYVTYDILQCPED
Chain of TNF-α converting enzyme (TACE) (P78536 215-824, species assumed): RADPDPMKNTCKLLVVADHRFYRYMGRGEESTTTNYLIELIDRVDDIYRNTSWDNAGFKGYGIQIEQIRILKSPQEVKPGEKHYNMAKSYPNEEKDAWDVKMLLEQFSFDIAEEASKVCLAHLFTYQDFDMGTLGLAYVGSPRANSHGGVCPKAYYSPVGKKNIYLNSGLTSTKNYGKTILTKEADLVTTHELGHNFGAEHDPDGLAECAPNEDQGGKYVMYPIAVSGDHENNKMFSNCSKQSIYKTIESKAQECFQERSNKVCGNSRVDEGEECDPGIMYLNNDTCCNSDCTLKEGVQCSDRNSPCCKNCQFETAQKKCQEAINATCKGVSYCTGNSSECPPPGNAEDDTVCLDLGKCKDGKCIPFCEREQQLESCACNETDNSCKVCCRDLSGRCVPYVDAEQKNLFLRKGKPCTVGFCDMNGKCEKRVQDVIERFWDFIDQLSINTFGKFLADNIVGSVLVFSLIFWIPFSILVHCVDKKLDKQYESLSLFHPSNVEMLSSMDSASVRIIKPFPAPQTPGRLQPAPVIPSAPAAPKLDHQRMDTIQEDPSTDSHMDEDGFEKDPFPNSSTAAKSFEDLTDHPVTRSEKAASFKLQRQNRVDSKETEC

For the compound `CC#CCOc1ccc(S(=O)(=O)N2CCN(C(=O)C3(C)COC(C)(C)OC3)CC2C(=O)NO)cc1` (stereo not drawn) [Example 231, 1-{[4-(2-Butynyloxy)phenyl]sulfonyl}-N-hydroxy-4-[(2,2,5-trimethyl-1,3-dioxan-5-yl)carbonyl]-2-piperazinecarboxamide], the IC50 turned out to be 0.059 µM in assay [1], 1.11 µM on MMP-9, 2.45 µM on MMP-1 and 0.355 µM on MMP-13 (read-out: MMP-13 IC50).
For `CC#CCOc1ccc(S(=O)(=O)N2CCN(C(=O)C(C)(CO)CO)CC2C(=O)NO)cc1` (stereo not drawn) [Example 232, 1-{[4-(2-Butynyloxy)phenyl]sulfonyl}-N-hydroxy-4-[3-hydroxy-2-(hydroxymethyl)-2-methylpropanoyl]-2-piperazinecarboxamide], in that order: 0.044 µM, 0.785 µM, 1.68 µM and 0.289 µM.
On to `CC#CCOc1ccc(S(=O)(=O)N2CCN(Cc3ccc(Br)cc3)CC2C(=O)NO)cc1` (stereo not drawn) [Example 233, 4-(4-Bromo-benzyl)-1-(4-but-2-ynyloxy-benzenesulfonyl)-piperazine-2-carboxylic Acid Hydroxyamide], for which the IC50 in assay [1] was determined as 0.184 µM; on MMP-9, 0.069 µM; on MMP-1, 2.83 µM; on MMP-13 (read-out: MMP-13 IC50) it was 0.055 µM.
On to `CC#CCOc1ccc(S(=O)(=O)N2CCN(Cc3cccnc3)CC2C(=O)NO)cc1` (stereo not drawn) [Example 234, 1-(4-but-2-ynyloxy-Benzenesulfonyl)-4-pyridin-3-ylmethyl-piperazine-2-carboxylic Acid Hydroxyamide], for which the IC50 in assay [1] was found to be 0.028 µM; at MMP-9, 0.108 µM; at MMP-1, 3.2 µM; against MMP-13 (MMP-13 IC50) it was 0.049 µM.
As for `CC1(C)SCCN(S(=O)(=O)c2ccc(OCC#CCCOC3CCCCO3)cc2)C1C(=O)NO` (stereo not drawn) [Example 243, N-Hydroxy-2,2-dimethyl-4-[(4-{[5-(tetrahydro-2H-pyran-2-yloxy)-2-pentynyl]oxy}phenyl)sulfonyl]-3-thiomorpholine Carboxamide], the IC50 in assay [1] (Table 10) is 0.087 µM; on MMP-9 (Table 10), 0.178 µM; at MMP-1 (Table 10) it was 0.194 µM; at MMP-13 (setting [2]) it was 0.0041 µM.
As to `CC1(C)SCCN(S(=O)(=O)c2ccc(OCC#CCCO)cc2)C1C(=O)NO` (stereo not drawn) [Example 244, N-Hydroxy-4-({4-[(5-hydroxy-2-pentynyl)oxy]phenyl}sulfonyl)-2,2-dimethyl-3-thiomorpholine Carboxamide], the IC50 was 0.062 µM in assay [1] (Table 10), 0.072 µM at MMP-9 (Table 10), 0.035 µM on MMP-1 (Table 10) and 0.014 µM on MMP-13 (setting [2]).
For `CC(C)(C)OC(=O)NCCC#CCOc1ccc(S(=O)(=O)N2CCSC(C)(C)C2C(=O)NO)cc1` (stereo not drawn) [Example 245, tert-Butyl 5-[4-({3-[(Hydroxyamino)carbonyl]-2,2-dimethyl-4-thiomorpholinyl}sulfonyl)phenoxy]-3-pentynylcarbamate], in that order: 0.112 µM, 2.38 µM, 0.3 µM and 0.0066 µM.
For `CC1(C)SCCN(S(=O)(=O)c2ccc(OCC#CCCN)cc2)C1C(=O)NO` (stereo not drawn) [Example 246, 4-({4-[(5-Amino-2-pentynyl)oxy]phenyl}sulfonyl)-N-hydroxy-2,2-dimethyl-3-thiomorpholine Carboxamide], in that order: 0.138 µM, 0.041 µM, 1.05 µM and 0.027 µM.
For `CC1(C)SCCN(S(=O)(=O)c2ccc(OCC#CCOCc3ccccc3)cc2)C1C(=O)NO` (stereo not drawn) [Example 247, 4-[(4-{[4-(Benzyloxy)-2-butynyl]oxy}phenyl)sulfonyl]-N-hydroxy-2,2-dimethyl-3-thiomorpholine Carboxamide], in that order: 0.16 µM, 0.108 µM, 0.053 µM and 0.0025 µM.
Regarding `CC1(C)SCCN(S(=O)(=O)c2ccc(OCC#CCCCOC3CCCCO3)cc2)C1C(=O)NO` (stereo not drawn) [Example 248, N-Hydroxy-2,2-dimethyl-4-[(4-{[6-(tetrahydro-2H-pyran-2-yloxy)-2-hexynyl]oxy}phenyl)sulfonyl]-3-thiomorpholine Carboxamide], the IC50 in assay [1] (Table 10) came out at 0.092 µM; on MMP-9 (Table 10), 0.048 µM; at MMP-1 (Table 10), 0.098 µM; on MMP-13 (setting [2]), 0.0073 µM.
In the case of `CC1(C)SCCN(S(=O)(=O)c2ccc(OCC#CCCCO)cc2)C1C(=O)NO` (stereo not drawn) [Example 249, N-Hydroxy-4-({4-[(6-hydroxy-2-hexynyl)oxy]phenyl}sulfonyl)-2,2-dimethyl-3-thiomorpholine Carboxamide], the IC50 came to 0.04 µM in assay [1] (Table 10), 0.377 µM at MMP-9 (Table 10), 0.159 µM on MMP-1 (Table 10) and 0.086 µM at MMP-13 (setting [2]).
For `CC(C)(C)OC(=O)NCCCC#CCOc1ccc(S(=O)(=O)N2CCSC(C)(C)[C@@H]2C(=O)NO)cc1` [Example 250, tert-Butyl 6-[4-({(3S)-3-[(Hydroxyamino)carbonyl]-2,2-dimethylthiomorpholinyl}sulfonyl)phenoxy]-4-hexynylcarbamate], in that order: 0.153 µM, 0.16 µM, 0.042 µM and 0.0017 µM.
For `CC1(C)SCCN(S(=O)(=O)c2ccc(OCC#CCCCN)cc2)[C@H]1C(=O)NO` [Example 251, (3S)-4-({4-[(6-Amino-2-hexynyl)oxy]phenyl}sulfonyl)-N-hydroxy-2,2-dimethyl-3-thiomorpholine Carboxamide], in that order: 0.028 µM, 0.028 µM, 0.226 µM and 0.0087 µM.
Turning to `CC#CCOc1ccc(S(=O)(=O)N2CCS(=O)(=O)C(C)(C)[C@@H]2C(=O)NO)cc1` [Example 257, (3S)-4-{[4-(2-Butynyloxy)phenyl]sulfonyl}-N-hydroxy-2,2-dimethyl-3-thiomorpholine Carboxamide 1,1-Dioxide], the IC50 in assay [1] (Table 9) amounted to 0.024 µM; at MMP-9 (Table 9), 0.064 µM; at MMP-1 (Table 9), 0.024 µM; at MMP-13 (Table 9, read-out: MMP-13 IC50), 0.023 µM.
Regarding `CC(C)(C)OC(=O)NCC#CCOc1ccc(S(=O)(=O)N2CCSC(C)(C)C2C(=O)NO)cc1` (stereo not drawn) [Example 266, tert-Butyl 4-[4-({3-[(Hydroxyamino)carbonyl]-2,2-dimethyl-4-thiomorpholinyl}sulfonyl)phenoxy]-2-butynylcarbamate], the IC50 in assay [1] (Table 10) was 0.074 µM; at MMP-9 (Table 10) it was 0.031 µM; at MMP-1 (Table 10), 0.026 µM; on MMP-13 (setting [2]), 0.004 µM.
For `CN(CC#CCOc1ccc(S(=O)(=O)N2CCSC(C)(C)C2C(=O)NO)cc1)C(=O)OC(C)(C)C` (stereo not drawn) [Example 267, tert-Butyl 4-[4-({3-[(Hydroxyamino)carbonyl]-2,2-dimethyl-4-thiomorpholinyl}sulfonyl)phenoxy]-2-butynyl(methyl)carbamate], in that order: 0.112 µM, 1.27 µM, 0.364 µM and 0.037 µM.
Regarding `CC#CCOc1ccc(S(=O)(=O)N2C[C@H](C)SC(C)(C)[C@@H]2C(=O)NO)cc1` [Example 272, (3S,6S)-4-{[4-(2-Butynyloxy)phenyl]sulfonyl}-N-hydroxy-2,2,6-trimethyl-3-thiomorpholinecarboxamide], the IC50 in assay [1] (Table 11) turned out to be 0.024 µM; at MMP-9 (Table 11) it was 0.166 µM; on MMP-1 (Table 11), 0.0078 µM; on MMP-13 (setting [3]), 0.0087 µM.
For `CC#CCOc1ccc(S(=O)(=O)N2C[C@@H](CN)SC(C)(C)[C@@H]2C(=O)NO)cc1` [Example 275, (3S,6R)-trans-6-(Aminomethyl)-4-{[4-(2-butynyloxy)phenyl]sulfonyl}-N-hydroxy-2,2-dimethyl-3-thiomorpholinecarboxamide Hydrochloride], in that order: 0.128 µM, 0.022 µM, 0.03 µM and 0.016 µM.
Regarding `CC#CCOc1ccc(S(=O)(=O)N2C[C@H](CN)SC(C)(C)[C@@H]2C(=O)NO)cc1` [Example 276, (3S,6S)-cis-6-(Aminomethyl)-4-{[4-(2-butynyloxy)phenyl]sulfonyl}-N-hydroxy-2,2-dimethyl-3-thiomorpholinecarboxamide Hydrochloride], the IC50 was 0.057 µM in assay [1] (Table 11), 0.084 µM at MMP-9 (Table 11), 0.021 µM on MMP-1 (Table 11) and 0.024 µM at MMP-13 (setting [3]).
On to `CC#CCOc1ccc(S(=O)(=O)N2CSC(C)(C)[C@@H]2C(=O)NO)cc1` [Example 286, (4S)-3-{[4-(2-Butynyloxy)phenyl]sulfonyl}-N-hydroxy-5,5-dimethyl-1,3-thiazolidine-4-carboxamide], for which the IC50 was 0.02 µM in assay [1], 1.79 µM on MMP-9, 3.04 µM at MMP-1 and 0.852 µM at MMP-13 (read-out: MMP-13 IC50).
For `CC#CCOc1ccc(S(=O)(=O)N2CCN(C(=O)c3ccccc3)CCC2C(=O)NO)cc1` (stereo not drawn) [Example 289, 1-Benzoyl-4-{[4-(2-butynyloxy)phenyl]sulfonyl}-N-hydroxy-1,4-diazepane-5-carboxamide], in that order: 0.01 µM, 0.012 µM, 0.113 µM and 0.004 µM.

The values are drawn from patent publication US6716833B2, “Acetylenic α-amino acid-based sulfonamide hydroxamic acid tace inhibitors” (priority 1999, dated 2004).
